{"source": "patent US20040110124A1", "about": "“Method of enhancing radiation resistance of normal cells” (priority 2002, published 2004)", "type_in_all_cases": "cell-based", "key": {"MS1 endothelial cells": {"system": "MS1 endothelial cells", "experiment": "Cell survival after irradiation, MTT assay, normal endothelial cells", "details": "light or radiation study, MS-1, irradiated at 20 Gy, 1.0 μM valinomycin for 2 hours, 45% without valinomycin, read-out: relative survival (% of control)", "protocol": "(§1) FIG. 3. Effect of valinomycin on radiation response of normal endothelial cells. MS1 endothelial cells were irradiated with 0-20 Gy in the presence or absence of valinomycin. Valinomycin (0.01-1.0 μM) was added in the growth media immediately prior to irradiation, and removed at 2 hours or 3 days post irradiation. Three days after irradiation, cell survival was assessed by using the MTT assay.\n(§2) Three normal cell lines (Rat-1, a fibroblast cell line; MS-1, an endothelial cell line and MDCK, a epithelial cell line) were studied. All three cell lines were cultured in Dulbecco's modified Eagle medium supplemented with 10% fetal calf serum, 100 U/ml penicillin and 100 ug/ml streptomycin (Gibco BRL, Gaithersburg, Md.) at 37° C. with 5% CO2. Cells were irradiated with a ^137Cs source at a dose rate of 300 cGy/min, and the viability of cells was measured by the MTT assay. Valinomycin was used as an agent to hyperpolarize the plasma membrane. The membrane potential was recorded with a fluorescent probe bis-oxonol, a negatively charged potential-sensitive fluorescent dye, which is distributed across the plasma membrane. Binding of this probe to intracellular components is dependent upon the membrane potential."}, "Rat-1 fibroblast cells": {"system": "Rat-1 fibroblast cells", "experiment": "Cell survival after irradiation, MTT assay, normal fibroblast cells", "details": "light or radiation study, Rat-1, irradiated at 20 Gy, 1.0 μM valinomycin for 2 hours, 25% without valinomycin, read-out: relative survival (% of control)", "protocol": "(§3) FIG. 2. Effect of valinomycin on radiation response of normal fibroblast cells. Rat-1 fibroblast cells were irradiated with 0-20 Gy in presence or absence of valinomycin. Valinomycin (0.01-1.0 μM) was added in the growth media immediately prior to irradiation, and removed at 2 hours or 3 days post irradiation. Three days after irradiation, cell survival was assessed by using the MTT assay.\nas §2"}, "MDCK epithelial cells": {"system": "MDCK epithelial cells", "experiment": "Cell survival after irradiation, MTT assay, normal epithelial cells", "details": "Canis lupus familiaris, light or radiation study, irradiated at 20 Gy, 1.0 μM valinomycin for 2 hours, 58% without valinomycin, read-out: relative survival (% of control)", "protocol": "as §1, with “4.” for “3.”, “epithelial” for “endothelial”, “MDCK epithelial” for “MS1 endothelial”\nas §2"}, "[1]": {"system": "Rat-1, MS-1 and MDCK cells", "experiment": "Cell survival after irradiation, MTT assay, all three normal cell lines together", "details": "valinomycin 0.01 μM to 1.0 μM", "protocol": "as §3, §1\nFIG. 4. Effect of valinomycin on radiation response of normal epithelial cells. […] Three days after irradiation, cell survival was assessed by using the MTT assay.\nThree normal cell lines (Rat-1, a fibroblast cell line; MS-1, an endothelial cell line and MDCK, a epithelial cell line) were studied. […] Cells were irradiated with a ^137Cs source at a dose rate of 300 cGy/min, and the viability of cells was measured by the MTT assay. […] The membrane potential was recorded with a fluorescent probe bis-oxonol, a negatively charged potential-sensitive fluorescent dye, which is distributed across the plasma membrane. […]"}, "Rat-1 cells": {"system": "Rat-1 cells", "experiment": "Membrane potential recorded with fluorescent probe bis-oxonol", "protocol": "FIG. 1. Fluorescence measurement of Rat-1 cells before (Line A) and after (Line B) valinomycin (1.0 μM) treatment.\nas §2"}}, "data": [{"molecule": "CC(C)[C@@H]1NC(=O)[C@H](C)OC(=O)[C@@H](C(C)C)NC(=O)[C@@H](C(C)C)OC(=O)[C@H](C(C)C)NC(=O)[C@H](C)OC(=O)[C@@H](C(C)C)NC(=O)[C@@H](C(C)C)OC(=O)[C@H](C(C)C)NC(=O)[C@H](C)OC(=O)[C@@H](C(C)C)NC(=O)[C@@H](C(C)C)OC1=O", "note": "[valinomycin]", "values": [{"measurement": "activity at 1 µM", "setting": "MS1 endothelial cells", "value": 92, "unit": "%"}, {"measurement": "activity at 1 µM", "setting": "Rat-1 fibroblast cells", "value": 67, "unit": "%"}, {"measurement": "activity at 1 µM", "setting": "MDCK epithelial cells", "value": 82, "unit": "%"}, {"measurement": "radiation protective effect across concentrations", "setting": "[1]", "value": "very similar radiation protective effects"}, {"measurement": "fluorescent reading, plasma membrane polarization", "setting": "Rat-1 cells; valinomycin 1.0 μM, incubation 2 hours, Rat-1 cells (FIG. 1)", "value": "decrease in fluorescent reading"}, {"measurement": "decrease of intracellular fluorescence (bis-oxonol)", "setting": "Rat-1 cells; valinomycin 0.01-1 nM for 2 hours or 3 days", "value": "55-60%"}, {"measurement": "intracellular fluorescence after valinomycin treatment", "setting": "Rat-1 cells; valinomycin 0.01-1 nM for 2 hours or 3 days, 0.44-0.5 prior to treatment", "value": "0.18-0.20"}]}]}
